Among the test systems are NCI-H226; IGROV-1; RPMI-8226; HOP-62; MDA-MB-231; K562; Hs-578T; Malme-3M; NCI-H460; HCT-116; SW-620; HL-60; UACC-62; SR; TK-10; U-251; A549; DU-145; COLO 205; HCT-15.
Common to all, as to assay: NCI anticancer screen, dose series, 48 h

Experimental findings from ChEMBL document CHEMBL1201862, “PubChem BioAssay data set” (2004) are described below.

Each structure is given as a SMILES string.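 Values below derive from 48-hour exposures of cells grown in 96-well plates, with endpoints linearly interpolated between the two concentrations bracketing the appropriate inhibition level. Abbreviation: GI50, concentration required for 50% inhibition of growth.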 Calls of active or inactive are those of the source. Rule as the data show it: active = GI50 up to about 1.1 µM and inactive = higher.

Take `CCOc1cc2c(cc1O)C=C[C@@H]1[C@@H]2CC[C@]2(C)[C@@H](O)CC[C@@H]12`: the GI50 in the experiment with NCI-H226 was 4.06 µM (inactive); with IGROV-1, 2.88 µM (inactive); in the experiment on RPMI-8226, 2.52 µM (inactive); in the experiment with HOP-62 it was 3.85 µM (inactive); in the experiment with MDA-MB-231 it was 4.11 µM (inactive); in the experiment on K562, 1.8 µM (inactive). Besides, the GI50 in the experiment with Hs-578T is 4.19 µM (inactive); in the experiment with Malme-3M, 1.5 µM (inactive); in the experiment on NCI-H460, 2.05 µM (inactive); in the experiment on HCT-116, 1.11 µM (active); in the experiment with SW-620 it was 1.87 µM (inactive); with HL-60, 0.579 µM (active). The GI50 with UACC-62 was 4.07 µM (inactive); in the experiment with SR it was 0.472 µM (active); in the experiment on TK-10 it was 14.4 µM (inactive); with U-251 it was 3.43 µM (inactive); in the experiment with A549, 4.27 µM (inactive); in the experiment on DU-145 it was 1.53 µM (inactive). In addition, the GI50 in the experiment on COLO 205 is 21.1 µM (inactive); with HCT-15, 0.562 µM.

Take `COC(=O)C1=NN2c3ccccc3C(=O)OCCC2C1` (stereo not given): the GI50 is > 100 µM (inactive) in the experiment on NCI-H226; 71.9 µM (inactive) in the experiment on IGROV-1; > 100 µM (inactive) with RPMI-8226; > 100 µM (inactive) in the experiment on HOP-62; > 100 µM (inactive) in the experiment with MDA-MB-231; > 100 µM (inactive) in the experiment on K562. For the same compound, the GI50 in the experiment on Hs-578T, in the experiment on Malme-3M, in the experiment with NCI-H460, in the experiment with HCT-116, in the experiment with SW-620 and in the experiment with HL-60 was > 100 µM (inactive) throughout. Further, the GI50 in the experiment on UACC-62, in the experiment on SR, with TK-10, in the experiment on U-251, with A549 and in the experiment with DU-145 was > 100 µM (inactive) in each case. In addition, the GI50 with COLO 205 is > 100 µM (inactive); with HCT-15 it was > 100 µM.

Consider `Cc1nnc(SCc2nc(C#N)c(C#N)nc2CSc2nnc(C)s2)s1`, for which the GI50 with NCI-H226 is 25.1 µM (inactive); in the experiment with IGROV-1, 16.8 µM (inactive); with RPMI-8226, 2.93 µM (inactive); with HOP-62 it was 19.1 µM (inactive); with MDA-MB-231, 16.6 µM (inactive); in the experiment on K562, 4.37 µM (inactive). The GI50 with Hs-578T was 17.1 µM (inactive); in the experiment with Malme-3M it was 5.75 µM (inactive); with NCI-H460 it was 24.2 µM (inactive); in the experiment on HCT-116, 4.55 µM (inactive); in the experiment with SW-620, 3.43 µM (inactive); in the experiment on HL-60, 1.79 µM (inactive). The GI50 is 15.8 µM (inactive) in the experiment with UACC-62; 4.6 µM (inactive) in the experiment with SR; 6.82 µM (inactive) in the experiment on TK-10; 18.7 µM (inactive) in the experiment on U-251; 33.3 µM (inactive) in the experiment with A549; 14.5 µM (inactive) in the experiment on DU-145. The GI50 is 11.5 µM (inactive) with COLO 205 and 7.66 µM with HCT-15.

Regarding `N#CCC12CC=CCC1=C(O)C(=O)c1ccc(O)cc12` (stereo not given), the GI50 in the experiment on NCI-H226 was 68.5 µM (inactive); in the experiment on IGROV-1, > 100 µM (inactive); in the experiment with RPMI-8226, > 100 µM (inactive); in the experiment with HOP-62 it was > 100 µM (inactive); in the experiment with MDA-MB-231, > 100 µM (inactive); in the experiment on K562 it was > 100 µM (inactive). Also, the GI50 is 58.1 µM (inactive) in the experiment with Hs-578T; > 100 µM (inactive) with Malme-3M; > 100 µM (inactive) with NCI-H460; > 100 µM (inactive) in the experiment on HCT-116; > 100 µM (inactive) in the experiment on SW-620; > 100 µM (inactive) in the experiment with HL-60. Besides, the GI50 was > 100 µM (inactive) in the experiment with UACC-62; 90.8 µM (inactive) in the experiment with SR; > 100 µM (inactive) in the experiment on TK-10; > 100 µM (inactive) in the experiment with U-251; > 100 µM (inactive) in the experiment on A549; > 100 µM (inactive) with DU-145. In addition, the GI50 in the experiment on COLO 205 is > 100 µM (inactive); in the experiment on HCT-15 it was > 100 µM.

As for `COc1ccc(C2CC(C)(O)Oc3cc4c(cc32)OCO4)cc1` (stereo not given), the GI50 in the experiment with NCI-H226 is 53.7 µM (inactive); in the experiment on IGROV-1, 29.5 µM (inactive); in the experiment on RPMI-8226, 27.4 µM (inactive); with HOP-62, 40.1 µM (inactive); in the experiment on MDA-MB-231, 32.6 µM (inactive); with K562, 15.2 µM (inactive). Further, the GI50 in the experiment on Hs-578T is 26.6 µM (inactive); with Malme-3M, 47.2 µM (inactive); in the experiment on NCI-H460, 31.4 µM (inactive); in the experiment on HCT-116, 30.6 µM (inactive); in the experiment on SW-620 it was 36 µM (inactive); in the experiment with HL-60, 17.6 µM (inactive). Moreover, the GI50 was 36.9 µM (inactive) in the experiment with UACC-62; 24.2 µM (inactive) in the experiment with SR; 36.1 µM (inactive) in the experiment on TK-10; 31.4 µM (inactive) in the experiment on U-251; 30.5 µM (inactive) in the experiment on A549; 61.2 µM (inactive) in the experiment with DU-145. The GI50 with COLO 205 is 19.7 µM (inactive); in the experiment on HCT-15, 23.8 µM.

On to `O=C(OCc1ccccc1)C1(N2CN(C3(C(=O)OCc4ccccc4)CCCC3)CN(C3(C(=O)OCc4ccccc4)CCCC3)C2)CCCC1`, for which the GI50 in the experiment with NCI-H226, in the experiment with IGROV-1, with RPMI-8226, in the experiment on HOP-62, in the experiment on MDA-MB-231 and in the experiment on K562 was > 10 µM (inactive) throughout. Besides, the GI50 in the experiment on Hs-578T, with Malme-3M, with NCI-H460, with HCT-116, with SW-620 and in the experiment with HL-60 was > 10 µM (inactive) in each case. The GI50 in the experiment with UACC-62, in the experiment with SR, with TK-10, in the experiment with U-251, with A549 and in the experiment with DU-145 was > 10 µM (inactive) each time. Also, the results for the GI50 with COLO 205 and in the experiment on HCT-15 were > 10 µM (inactive) and > 10 µM, respectively.

Regarding `COc1ccc2nc3cc(Cl)ccc3c(Nc3ccc(O)c(CN4CCN(C)CC4)c3)c2c1`, the GI50 in the experiment on NCI-H226 is 20.5 µM (inactive); in the experiment on IGROV-1, 1.71 µM (inactive); in the experiment with RPMI-8226 it was 1.9 µM (inactive); with HOP-62, 2.06 µM (inactive); in the experiment on MDA-MB-231, 1.52 µM (inactive); in the experiment on K562, 1.59 µM (inactive). Also, the GI50 in the experiment with Hs-578T is 1.89 µM (inactive); in the experiment with Malme-3M it was 1.79 µM (inactive); with NCI-H460, 1.72 µM (inactive); in the experiment with HCT-116 it was 1.75 µM (inactive); in the experiment with SW-620, 1.99 µM (inactive); in the experiment on HL-60 it was 1.95 µM (inactive). The GI50 with UACC-62 was 1.72 µM (inactive); with SR, 0.676 µM (active); in the experiment on TK-10, 1.97 µM (inactive); in the experiment with U-251, 1.67 µM (inactive); in the experiment with A549, 1.87 µM (inactive); in the experiment on DU-145, 1.9 µM (inactive). Moreover, the GI50 is 1.63 µM (inactive) with COLO 205 and 2.31 µM in the experiment with HCT-15.

In the case of `CCOC(=O)c1c2ccccc2n2c(=O)n(-c3ccc(OC)cc3)nnc12`, the GI50 in the experiment with NCI-H226 was 23.3 µM (inactive); with IGROV-1, 17.5 µM (inactive); with RPMI-8226 it was 25.1 µM (inactive); in the experiment with HOP-62 it was 21.1 µM (inactive); in the experiment on MDA-MB-231 it was > 45.5 µM (inactive); in the experiment on K562, 25.9 µM (inactive). The GI50 is 19.9 µM (inactive) with Hs-578T; 30.5 µM (inactive) with Malme-3M; > 95.1 µM (inactive) in the experiment with NCI-H460; 54.8 µM (inactive) with HCT-116; > 42.4 µM (inactive) in the experiment with SW-620; 21.1 µM (inactive) in the experiment with HL-60. Besides, the GI50 is 11.2 µM (inactive) in the experiment on UACC-62; 38.7 µM (inactive) in the experiment with SR; 46.6 µM (inactive) in the experiment on TK-10; 16.9 µM (inactive) in the experiment on U-251; 46.5 µM (inactive) in the experiment with A549; 75.2 µM (inactive) in the experiment on DU-145. The GI50 with COLO 205 is > 100 µM (inactive); in the experiment on HCT-15, > 58.6 µM.

Take `NC1=Nc2ccccc2Sc2nncn21`: the GI50 is > 100 µM (inactive) with NCI-H226; > 100 µM (inactive) in the experiment with IGROV-1; > 100 µM (inactive) in the experiment on RPMI-8226; > 100 µM (inactive) with HOP-62; 85.3 µM (inactive) in the experiment with MDA-MB-231; > 100 µM (inactive) in the experiment on K562. Further, the GI50 in the experiment on Hs-578T, in the experiment with Malme-3M, in the experiment on NCI-H460, with HCT-116, in the experiment on SW-620 and in the experiment on HL-60 was > 100 µM (inactive) throughout. For the same compound, the GI50 in the experiment with UACC-62, in the experiment on SR, with TK-10, in the experiment on U-251, in the experiment on A549 and with DU-145 was > 100 µM (inactive) in each case. In addition, the figures for the GI50 in the experiment on COLO 205 and in the experiment on HCT-15 were > 100 µM (inactive) and > 100 µM, respectively.

As to `NC(C(=O)O)c1cc(O)no1` (stereo not given), the GI50 in the experiment on NCI-H226, with IGROV-1, in the experiment with RPMI-8226, in the experiment on HOP-62, with MDA-MB-231 and in the experiment with K562 was > 100 µM (inactive) throughout. Besides, the GI50 with Hs-578T was > 100 µM (inactive); with Malme-3M, > 100 µM (inactive); with NCI-H460 it was > 100 µM (inactive); in the experiment with HCT-116 it was > 100 µM (inactive); in the experiment with SW-620 it was > 100 µM (inactive); in the experiment with HL-60, > 60 µM (inactive). The GI50 with UACC-62, with SR, in the experiment with TK-10, in the experiment on U-251, with A549 and in the experiment on DU-145 was > 100 µM (inactive) throughout. For the same compound, the figures for the GI50 in the experiment on COLO 205 and with HCT-15 were > 100 µM (inactive) and > 100 µM, respectively.
